Experimental data: US20250235148A1, “IBS RELATED TESTING AND TREATMENT” (IBS-80, LLC, priority 2021, published 2025)
Like-named read-outs stand apart in the source and are kept apart here.

Columns and labels:
skin of each patient [1] = assay: skin patch testing with the first 28 common test materials (Example 2); conditions: of 15 symptomatic patients (IBS or IBS-like symptoms)
skin of each patient [2] = conditions: human, in vivo, 48 h

| Compound | patients with a positive patch test (skin of each patient [1]) | patients with a positive patch test (skin of each patient [2]) |
| --- | --- | --- |
| O=C(OOC(=O)c1ccccc1)c1ccccc1 [benzoyl peroxide] | 1 | – |
| C=C(C)[C@H]1CC=C(C)CC1 [dipentene] | 1 | – |
| CCCCCCCCCCCCOC(=O)c1cc(O)c(O)c(O)c1 [dodecyl gallate] | – | 1 |
